Reference: PubChem BioAssay (NCI)
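Briefly, cells in 96-well plates were exposed to five compound concentrations for 48 h, and endpoints were estimated by linear interpolation. GI50 marks 50% less growth. TGI is the concentration that stops growth completely.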

Legend:
Experiment in all cases: inhibition of tumour cell growth, NCI panel, 48 h
SK-OV-3 ovarian = system: SK-OV-3 ovarian
SNB-75 CNS = system: SNB-75 CNS
COLO 205 colon = system: COLO 205 colon
MCF7 breast = system: MCF7 breast
SNB-19 CNS = system: SNB-19 CNS
EKVX NSCLC = system: EKVX NSCLC
SK-MEL-2 melanoma = system: SK-MEL-2 melanoma
HT29 colon = system: HT29 colon
SF-295 CNS = system: SF-295 CNS
HCC-2998 colon = system: HCC-2998 colon
CAKI-1 renal = system: CAKI-1 renal
NCI-H23 lung = system: NCI-H23 lung
SK-MEL-5 melanoma = system: SK-MEL-5 melanoma
BT-549 breast = system: BT-549 breast
MDA-MB-231 breast = system: MDA-MB-231 breast
SW-620 colon = system: SW-620 colon
LOX IMVI melanoma = system: LOX IMVI melanoma
T-47D breast = system: T-47D breast
UO-31 renal = system: UO-31 renal
OVCAR-5 ovarian = system: OVCAR-5 ovarian
MALME-3M melanoma = system: MALME-3M melanoma
MOLT-4 leukemia = system: MOLT-4 leukemia
K-562 leukemia = system: K-562 leukemia
SN12C renal = system: SN12C renal
786-0 renal = system: 786-0 renal
DU-145 prostate = system: DU-145 prostate
TK-10 renal = system: TK-10 renal
SF-268 CNS = system: SF-268 CNS
HCT-15 colon = system: HCT-15 colon
OVCAR-3 ovarian = system: OVCAR-3 ovarian
M14 melanoma = system: M14 melanoma
OVCAR-4 ovarian = system: OVCAR-4 ovarian
OVCAR-8 ovarian = system: OVCAR-8 ovarian
HL-60(TB) leukemia = system: HL-60(TB) leukemia
U251 CNS = system: U251 CNS
ACHN renal = system: ACHN renal
NCI-H460 lung = system: NCI-H460 lung
RPMI-8226 leukemia = system: RPMI-8226 leukemia
HS 578T breast = system: HS 578T breast
NCI-H226 lung = system: NCI-H226 lung
RXF 393 renal = system: RXF 393 renal
MDA-MB-435 = system: MDA-MB-435
SF-539 CNS = system: SF-539 CNS
A498 renal = system: A498 renal
KM12 colon = system: KM12 colon
UACC-257 melanoma = system: UACC-257 melanoma
PC-3 prostate = system: PC-3 prostate
A549 NSCLC = system: A549 NSCLC
SK-MEL-28 melanoma = system: SK-MEL-28 melanoma
NCI-H522 lung = system: NCI-H522 lung
NCI/ADR-RES ovarian = system: NCI/ADR-RES ovarian
UACC-62 melanoma = system: UACC-62 melanoma
IGROV1 ovarian = system: IGROV1 ovarian
HOP-92 NSCLC = system: HOP-92 NSCLC
HOP-62 NSCLC = system: HOP-62 NSCLC
HCT-116 colon = system: HCT-116 colon
CCRF-CEM leukemia = system: CCRF-CEM leukemia
SR leukemia = system: SR leukemia

## O=C1/C(=C/c2ccc(Cl)cc2)COc2ccc(O)c(O)c21
SK-OV-3 ovarian
  GI50: 2.49 µM
  TGI: > 100 µM
SNB-75 CNS
  GI50: 1.34 µM
  TGI: 3.65 µM
COLO 205 colon
  GI50: 1.79 µM
  TGI: 3.31 µM
MCF7 breast
  GI50: 0.332 µM
  TGI: 2.15 µM
SNB-19 CNS
  GI50: 1.43 µM
  TGI: 2.95 µM
EKVX NSCLC
  GI50: 1.49 µM
  TGI: 3.19 µM
SK-MEL-2 melanoma
  GI50: 2.51 µM
  TGI: 7.63 µM
HT29 colon
  GI50: 1.92 µM
  TGI: 3.98 µM
SF-295 CNS
  GI50: 3.37 µM
  TGI: 13.2 µM
HCC-2998 colon
  GI50: 1.51 µM
  TGI: 2.96 µM
CAKI-1 renal
  GI50: 1.07 µM
  TGI: 2.28 µM
NCI-H23 lung
  GI50: 1.71 µM
  TGI: 4.09 µM
SK-MEL-5 melanoma
  GI50: 1.51 µM
  TGI: 2.9 µM
BT-549 breast
  GI50: 1.77 µM
  TGI: 4.04 µM
MDA-MB-231 breast
  GI50: 1.11 µM
  TGI: 3.25 µM
SW-620 colon
  GI50: 0.838 µM
  TGI: 2.94 µM
LOX IMVI melanoma
  GI50: 0.33 µM
  TGI: 1.36 µM
T-47D breast
  GI50: 1.2 µM
  TGI: 2.98 µM
UO-31 renal
  GI50: 0.458 µM
  TGI: 1.84 µM
OVCAR-5 ovarian
  GI50: 1.6 µM
  TGI: 3.21 µM
MALME-3M melanoma
  GI50: 1.47 µM
  TGI: 3.47 µM
MOLT-4 leukemia
  GI50: 0.618 µM
  TGI: > 100 µM
K-562 leukemia
  GI50: 0.321 µM
  TGI: > 100 µM
SN12C renal
  GI50: 0.724 µM
  TGI: 2.57 µM
786-0 renal
  GI50: 1.42 µM
  TGI: 5.17 µM
DU-145 prostate
  GI50: 1.44 µM
  TGI: 3.13 µM
TK-10 renal
  GI50: 1.71 µM
  TGI: 3.19 µM
SF-268 CNS
  GI50: 1.44 µM
  TGI: 3.06 µM
HCT-15 colon
  GI50: 0.356 µM
  TGI: 4.18 µM
OVCAR-3 ovarian
  GI50: 0.404 µM
  TGI: 1.48 µM
M14 melanoma
  GI50: 1.92 µM
  TGI: 4.77 µM
OVCAR-4 ovarian
  GI50: 1.33 µM
  TGI: 2.71 µM
OVCAR-8 ovarian
  GI50: 1.11 µM
  TGI: 12.8 µM
HL-60(TB) leukemia
  GI50: 0.28 µM
  TGI: 0.827 µM
U251 CNS
  GI50: 0.731 µM
  TGI: 2.06 µM
ACHN renal
  GI50: 1.14 µM
  TGI: 2.36 µM
NCI-H460 lung
  GI50: 1.78 µM
  TGI: 3.89 µM
RPMI-8226 leukemia
  GI50: 0.2 µM
  TGI: 0.512 µM
HS 578T breast
  GI50: 1.8 µM
  TGI: 7.02 µM
NCI-H226 lung
  GI50: 1.86 µM
  TGI: 5.18 µM
RXF 393 renal
  GI50: 1.34 µM
  TGI: 2.75 µM
MDA-MB-435
  GI50: 0.702 µM
  TGI: 2.63 µM
SF-539 CNS
  GI50: 0.44 µM
  TGI: 1.87 µM
A498 renal
  GI50: 2.95 µM
  TGI: 9.19 µM
KM12 colon
  GI50: 1.36 µM
  TGI: 3.31 µM
UACC-257 melanoma
  GI50: 1.65 µM
  TGI: 3.88 µM
PC-3 prostate
  GI50: 0.501 µM
  TGI: 3.48 µM
A549 NSCLC
  GI50: 1.79 µM
  TGI: 4.77 µM
SK-MEL-28 melanoma
  GI50: 1.53 µM
  TGI: 3.06 µM
NCI-H522 lung
  GI50: 0.182 µM
  TGI: 0.426 µM
NCI/ADR-RES ovarian
  GI50: 1.6 µM
  TGI: 15.8 µM
UACC-62 melanoma
  GI50: 1.27 µM
  TGI: 2.63 µM
IGROV1 ovarian
  GI50: 0.438 µM
  TGI: 2.16 µM
HOP-92 NSCLC
  GI50: 2.01 µM
  TGI: 8.77 µM

## Oc1c(N=Nc2ccccc2)c2ccccc2c2ccc3ccccc3c12
SK-OV-3 ovarian
  TGI: > 100 µM
SNB-75 CNS
  TGI: > 100 µM
COLO 205 colon
  TGI: > 100 µM
MCF7 breast
  TGI: > 100 µM
SNB-19 CNS
  TGI: > 100 µM
EKVX NSCLC
  TGI: > 100 µM
SK-MEL-2 melanoma
  TGI: > 100 µM
HT29 colon
  TGI: > 100 µM
SF-295 CNS
  TGI: > 100 µM
HOP-62 NSCLC
  TGI: > 100 µM
HCC-2998 colon
  TGI: > 100 µM
CAKI-1 renal
  TGI: > 100 µM
NCI-H23 lung
  TGI: > 100 µM
SK-MEL-5 melanoma
  TGI: > 100 µM
BT-549 breast
  TGI: > 100 µM
MDA-MB-231 breast
  TGI: > 100 µM
SW-620 colon
  TGI: > 100 µM
T-47D breast
  TGI: > 100 µM
UO-31 renal
  TGI: > 100 µM
OVCAR-5 ovarian
  TGI: > 100 µM
MALME-3M melanoma
  TGI: > 100 µM
MOLT-4 leukemia
  TGI: > 100 µM
K-562 leukemia
  TGI: > 100 µM
SN12C renal
  TGI: > 100 µM
786-0 renal
  TGI: > 100 µM
DU-145 prostate
  TGI: > 100 µM
TK-10 renal
  TGI: > 100 µM
SF-268 CNS
  TGI: > 100 µM
HCT-15 colon
  TGI: > 100 µM
HCT-116 colon
  TGI: > 100 µM
OVCAR-3 ovarian
  TGI: > 100 µM
CCRF-CEM leukemia
  TGI: > 100 µM
M14 melanoma
  TGI: > 100 µM
OVCAR-4 ovarian
  TGI: > 100 µM
OVCAR-8 ovarian
  TGI: > 100 µM
HL-60(TB) leukemia
  TGI: > 100 µM
U251 CNS
  TGI: > 100 µM
ACHN renal
  TGI: > 100 µM
NCI-H460 lung
  TGI: > 100 µM
RPMI-8226 leukemia
  TGI: > 100 µM
SR leukemia
  TGI: 32.6 µM
HS 578T breast
  TGI: > 100 µM
NCI-H226 lung
  TGI: > 100 µM
RXF 393 renal
  TGI: > 100 µM
MDA-MB-435
  TGI: > 100 µM
SF-539 CNS
  TGI: 85.2 µM
A498 renal
  TGI: > 100 µM
KM12 colon
  TGI: > 100 µM
UACC-257 melanoma
  TGI: > 100 µM
PC-3 prostate
  TGI: > 100 µM
A549 NSCLC
  TGI: > 100 µM
SK-MEL-28 melanoma
  TGI: > 100 µM
NCI-H522 lung
  TGI: > 100 µM
NCI/ADR-RES ovarian
  TGI: > 100 µM
UACC-62 melanoma
  TGI: > 100 µM
IGROV1 ovarian
  TGI: > 100 µM
HOP-92 NSCLC
  TGI: > 100 µM
